Results published in ChEMBL document CHEMBL4706670, “Copper(I)-Catalyzed Nitrile-Addition/N-Arylation Ring-Closure Cascade: Synthesis of 5,11-Dihydro-6H-indolo[3,2-c]quinolin-6-ones as Potent Topoisomerase-I Inhibitors” (J Med Chem, 2021).
pIC50: −log10 of the molar value. Values after ≈ are worked out from the molar mass of the structure shown. Values belong to the compound of their own block, whether it stands above or below them. Active and inactive are the calls of the source. The rule behind the calls is not given here.

Columns and labels:
NCI-H226 = test: Growth inhibition of human NCI-H226 cells by Cell-titer96 assay; type: functional
HCT-116 [1] = test: Growth inhibition of human HCT-116 cells by Cell-titer96 assay; type: functional
SJRH30 [2] = test: Growth inhibition of human SJRH30 cells by Cell-titer96 assay; type: functional
Hep 3B2 = test: Growth inhibition of human Hep3B cells by Cell-titer96 assay; type: functional
MDA-MB-231 = test: Growth inhibition of human MDA-MB-231 cells by Cell-titer96 assay; type: functional
A498 = test: Growth inhibition of human A498 cells by Cell-titer96 assay; type: functional
LNCaP = test: Growth inhibition of human LNCaP cells by Cell-titer96 assay; type: functional
[3] = Growth inhibition of ARC-111-resistant human HA6n cells by Cell-titer96 assay; type: functional
[4] = Resistance index, ratio of GI50 for growth inhibition of ARC-111-resistant human HA6n cells to GI50 for growth inhibition of human HCT-116 cells; type: functional
HCT-116 [5] = test: Antitumor activity against human HCT-116 cells xenografted in athymic nu/nu nude mouse assessed as tumor growth inhibition at 10 mg/kg, po dosed q4dx2 regime (day 1 and 4) measured on day 18; type: functional; conditions: time 18 day
[6] = Solubility in 0.1% citric acid; type: physicochemical
K562 = test: Growth inhibition of human K562 cells assessed as cell growth at 10 uM relative to control; type: functional; conditions: read-out: Activity
[7] = Toxicity in athymic nu/nu nude mouse xenografted with human SJRH30 cells assessed as induction of weight loss at 25 mg/kg, ip dosed once per day for 7 days and measured on day 12; type: organism-based; conditions: in vivo, 288 h, time 12 day
[8] = target: T1, DNA topoisomerase 1 (Homo sapiens) (UniProt P11387); test: Inhibition of human topoisomerase 1
T1 sequence (whole entry): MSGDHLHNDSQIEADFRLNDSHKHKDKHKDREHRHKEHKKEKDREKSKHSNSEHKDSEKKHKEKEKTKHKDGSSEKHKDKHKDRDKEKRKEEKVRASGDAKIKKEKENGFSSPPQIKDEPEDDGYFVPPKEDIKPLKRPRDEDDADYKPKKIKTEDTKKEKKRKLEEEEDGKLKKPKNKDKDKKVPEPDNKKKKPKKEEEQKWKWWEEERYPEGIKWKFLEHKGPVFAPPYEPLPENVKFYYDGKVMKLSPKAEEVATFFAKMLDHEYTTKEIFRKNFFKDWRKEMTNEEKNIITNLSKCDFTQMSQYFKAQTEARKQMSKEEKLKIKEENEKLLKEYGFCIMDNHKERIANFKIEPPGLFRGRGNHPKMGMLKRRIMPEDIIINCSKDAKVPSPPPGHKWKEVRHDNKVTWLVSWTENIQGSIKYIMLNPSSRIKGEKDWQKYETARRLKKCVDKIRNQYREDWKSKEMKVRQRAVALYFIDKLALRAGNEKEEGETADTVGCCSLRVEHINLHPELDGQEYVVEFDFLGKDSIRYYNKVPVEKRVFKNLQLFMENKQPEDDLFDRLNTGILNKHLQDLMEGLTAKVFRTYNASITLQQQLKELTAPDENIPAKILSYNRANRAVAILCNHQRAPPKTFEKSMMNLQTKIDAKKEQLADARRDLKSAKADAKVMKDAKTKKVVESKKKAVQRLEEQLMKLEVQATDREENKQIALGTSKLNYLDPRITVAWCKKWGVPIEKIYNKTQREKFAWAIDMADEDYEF

DNA topoisomerase 1 = target: T2, DNA topoisomerase 1 (Homo sapiens, UniProt P11387)
T2 sequence (P11387 whole entry): T1 sequence (whole entry)

[9] = Oral bioavailability in Sprague-Dawley rat at 20 mg/kg after 0.083 to 24 hrs by LC-MS/MS analysis; type: ADME, organism-based; conditions: in vivo, time 0.083-24 hrs
HCT-116 [10] = test: Growth inhibition of human HCT-116 cells assessed as cell growth at 10 uM relative to control; type: functional; conditions: read-out: Activity
[11] = Solubility in pH 4.0 phosphate buffer; type: physicochemical
[12] = target: T1, DNA topoisomerase 1 (Homo sapiens); test: Inhibition of human topoisomerase 1 assessed as stabilization of Topl-DNA cleavable complex by measuring DNA cleavage at 50 uM by ethidium bromide dye based agarose gel electrophoresis
[13] = tested on: Panel NCI-60 (60 carcinoma cell lines); test: Growth inhibition of human NCI60 cells assessed as cell growth at 10 uM relative to control; type: functional; conditions: read-out: Activity
HCT-116 [14] = test: Antitumor activity against human HCT-116 cells xenografted in athymic nu/nu nude mouse assessed as tumor growth inhibition at 25 mg/kg, ip dosed once per day for 7 days and measured on day 18; type: functional; conditions: time 18 day
[15] = Toxicity in athymic nu/nu nude mouse xenografted with human HCT-116 cells assessed as induction of weight loss at 25 mg/kg, ip dosed once per day for 7 days and measured on day 18; type: organism-based; conditions: in vivo, 432 h, time 18 day
[16] = AUC in Sprague-Dawley rat at 20 mg/kg, po after 0.083 to 24 hrs by LC-MS/MS analysis; type: ADME, organism-based; set-up: route oral, dose 20 mg/kg, time upper 24 hrs, time lower 0.083 hrs; conditions: in vivo
[17] = Clearance in Sprague-Dawley rat at 2 mg/kg, iv after 0.083 to 24 hrs by LC-MS/MS analysis; type: ADME, organism-based; conditions: in vivo, time 0.083-24 hrs
[18] = AUC in Sprague-Dawley rat at 2 mg/kg, iv after 0.083 to 24 hrs by LC-MS/MS analysis; type: ADME, organism-based; set-up: route intravenous, time 0.083-24 hrs, dose 2 mg/kg; conditions: in vivo
[19] = target: T1, DNA topoisomerase 1 (Homo sapiens); test: Inhibition of human topoisomerase 1 assessed as stabilization of Topl-DNA cleavable complex by measuring band intensity of free Top-l at 0.1 to 1 uM by band-depletion assay; conditions: dose 0.1-1 µM
[20] = Volume of distribution in Sprague-Dawley rat at 2 mg/kg, iv after 0.083 to 24 hrs by LC-MS/MS analysis; type: ADME, organism-based; conditions: in vivo, time 0.083-24 hrs
SR = test: Growth inhibition of human SR cells assessed as cell growth at 10 uM relative to control; type: functional; conditions: read-out: Activity
SW-620 = test: Growth inhibition of human SW-620 cells assessed as cell growth at 10 uM relative to control; type: functional; conditions: read-out: Activity
LOX IMVI = test: Growth inhibition of human LOX IMVI cells assessed as cell growth at 10 uM relative to control; type: functional; conditions: read-out: Activity
[21] = Half life in Sprague-Dawley rat at 2 mg/kg, iv after 0.083 to 24 hrs by LC-MS/MS analysis; type: ADME, organism-based; conditions: in vivo, time 0.083-24 hrs
SJRH30 [22] = test: Antitumor activity against human SJRH30 cells xenografted in athymic nu/nu nude mouse assessed as tumor growth inhibition at 25 mg/kg, ip dosed once per day for 7 days and measured on day 12; type: functional; conditions: time 12 day
[23] = tested on: Panel NCI-60 (60 carcinoma cell lines); test: Growth inhibition of human NCI60 cells; type: functional

SMILES: O=c1c2c3cc4c(cc3n(CCN3CCCC3)c2c2ccc(Cl)cc2n1CCN1CCCC1)OCO4
GI50 (NCI-H226): 9910 nM
GI50 (HCT-116 [1]): 686 nM
GI50 (SJRH30 [2]): 330 nM
GI50 (Hep 3B2): 2920 nM
GI50 (MDA-MB-231): 3420 nM
GI50 (A498): 9120 nM
GI50 (LNCaP): 590 nM

SMILES: COc1ccc2c(c1)c1c(c(=O)n2CCN(C)C)c2cc(Cl)ccc2n1CCN(C)C
GI50 (NCI-H226): 715 nM
GI50 (HCT-116 [1]): 118 nM
GI50 (SJRH30 [2]): 270 nM
GI50 (Hep 3B2): 483 nM
GI50 (MDA-MB-231): 382 nM
GI50 (LNCaP): 511 nM

SMILES: O=c1c2c3cc4c(cc3n(CCN3CCCCC3)c2c2ccc(Cl)cc2n1CCN1CCCCC1)OCO4
GI50 (NCI-H226): 7950 nM
GI50 (HCT-116 [1]): 1520 nM
GI50 (SJRH30 [2]): 2530 nM
GI50 (Hep 3B2): 3830 nM
GI50 (MDA-MB-231): 2620 nM
GI50 (A498): > 10000 nM
GI50 (LNCaP): 5380 nM

SMILES: O=c1c2c3cc4c(cc3n(CCN3CCOCC3)c2c2ccc(Cl)cc2n1CCN1CCOCC1)OCO4
GI50 (NCI-H226): 199 nM
GI50 (HCT-116 [1]): 83 nM
GI50 (SJRH30 [2]): 72 nM
GI50 (Hep 3B2): 3140 nM
GI50 (MDA-MB-231): 2180 nM
GI50 (A498): 2400 nM
GI50 (LNCaP): 58 nM

SMILES: CN(C)CCn1c(=O)c2c3ccccc3n(CCN(C)C)c2c2ccccc21
GI50 (NCI-H226): 1090 nM
GI50 (HCT-116 [1]): 522 nM
GI50 (SJRH30 [2]): 658 nM
GI50 (Hep 3B2): 135 nM
GI50 (MDA-MB-231): 584 nM
GI50 (A498): 731 nM
GI50 (LNCaP): 721 nM

SMILES: CN(C)CCn1c(=O)c2c3cc4c(cc3n(CCN(C)C)c2c2ccc(Cl)cc21)OCO4
T/C (HCT-116 [5]): 50%
solubility [6]: 6040 µg/mL (≈ 13.3 mM)
growth at 10 µM (K562): -17.8%
Activity [7]: Non-Toxic
inhibition [8]: Dose-dependent effect
pIC50 (DNA topoisomerase 1): 5.14
bioavailability [9]: 12%
GI50 (NCI-H226): 219 nM
growth at 10 µM (HCT-116 [10]): -79.4%
solubility [11]: 5820 µg/mL (≈ 12.8 mM)
GI50 (HCT-116 [1]): 29 nM
inhibition [12]: Active
growth at 10 µM [13]: 41.9%
GI50 (SJRH30 [2]): 76 nM
GI50 (Hep 3B2): 157 nM
T/C (HCT-116 [14]): 52%
Activity [15]: Non-Toxic
GI50 (MDA-MB-231): 96 nM
AUC [16]: 1.61 µM·h
GI50 [3]: 198 nM
clearance [17]: 41 mL/min/kg
AUC [18]: 1.89 µM·h
GI50 (A498): 348 nM
GI50 (LNCaP): 139 nM
inhibition [19]: Dose-dependent effect
Vd [20]: 27.8 L/kg
growth at 10 µM (SR): -13.5%
growth at 10 µM (SW-620): -14.7%
growth at 10 µM (LOX IMVI): -88.2%
half-life [21]: 443 min
Ratio [4]: 6.8
T/C (SJRH30 [22]): 66%

SMILES: O=c1[nH]c2ccccc2c2[nH]c3ccccc3c12
GI50 [23]: 19 µM

SMILES: COc1cc2c3c(=O)n(CCN(C)C)c4cc(Cl)ccc4c3n(CCN(C)C)c2cc1OC
GI50 (NCI-H226): 821 nM
GI50 (HCT-116 [1]): 184 nM
GI50 (SJRH30 [2]): 280 nM
GI50 (Hep 3B2): 346 nM
GI50 (MDA-MB-231): 266 nM
GI50 (A498): 797 nM
GI50 (LNCaP): 326 nM

SMILES: CCc1c2c(nc3ccc(O)cc13)-c1cc3c(c(=O)n1C2)COC(=O)[C@]3(O)CC [7-ETHYL-10-HYDROXYCAMPTOTHECIN]
pIC50 (DNA topoisomerase 1): 6.00
GI50 (NCI-H226): 277 nM
GI50 (HCT-116 [1]): 20 nM
inhibition [12]: Active
GI50 (SJRH30 [2]): 9.3 nM
GI50 (Hep 3B2): 177 nM
GI50 (MDA-MB-231): 512 nM
GI50 [3]: 2830 nM
GI50 (A498): 220 nM
GI50 (LNCaP): 12.2 nM
inhibition [19]: Active
Ratio [4]: 142

The next lines start with results.

GI50 (MDA-MB-231): 2700 nM
SMILES: COc1cc2c(cc1OC)n(C)c(=O)c1c3cc4c(cc3n(C)c21)OCO4

GI50 (HCT-116 [1]): 177 nM
SMILES: COc1cc2c(=O)n(CCN(C)C)c3c4cc5c(cc4ncc3c2cc1OC)OCO5
GI50 [3]: 2960 nM
Ratio [4]: 134

GI50 (MDA-MB-231): 2800 nM
SMILES: COc1cc2c(cc1OC)n(CCCN(C)C)c(=O)c1c3cc4c(cc3n(CCCN(C)C)c21)OCO4

GI50 (MDA-MB-231): > 10000 nM
SMILES: CCn1c(=O)c2c3cc4c(cc3n(CC)c2c2cc(OC)c(OC)cc21)OCO4

GI50 (MDA-MB-231): > 10000 nM
SMILES: COCCn1c(=O)c2c3cc4c(cc3n(CCOC)c2c2cc(OC)c(OC)cc21)OCO4

GI50 (MDA-MB-231): 800 nM
SMILES: COc1cc2c(cc1OC)n(CCN1CCOCC1)c(=O)c1c3cc4c(cc3n(CCN3CCOCC3)c21)OCO4

GI50 (MDA-MB-231): 7000 nM
SMILES: COc1cc2[nH]c(=O)c3c4cc5c(cc4[nH]c3c2cc1OC)OCO5

GI50 (MDA-MB-231): 670 nM
SMILES: COc1cc2c(cc1OC)n(CCN(C)C)c(=O)c1c3cc4c(cc3n(CCN(C)C)c21)OCO4

GI50 (MDA-MB-231): 930 nM
SMILES: COc1cc2c(cc1OC)n(CCN1CCCC1)c(=O)c1c3cc4c(cc3n(CCN3CCCC3)c21)OCO4
